Test system: human embryonic stem cells
Experiment: Metabolite profiling (LC/ESI-TOF mass spectrometry) of extracellular media of hESCs treated with alcohol
Format: cell-based
Conditions: ETOH 0.1; 4 D
Text: Binned masses were annotated in silico by querying the neutral masses in several different databases. These databases included Metlin, Biological Magnetic Resonance Data Bank (BMRB), NIST Chemistry WebBook, and the Human Metabolome Database. A mass was considered identified when its neutral mass was within 10 ppm of a known compound annotated in one of the databases listed above.

CCO [ETOH]
Fold: 2-Oxo-4-methylthiobutanoic acid, mass 148.016, RT 52.88652: −2.444 fold
Fold: 3-(2,5-Dimethoxy phenylpropionic acid, mass 210.0922, RT 36.18938): 1.864 fold
Fold: (+)-Eudesmin, mass 386.1724, RT 51.65871: 5.309 fold
Fold: (+/−)-2-(4′-Isobutylphenyl)propionitrile, mass 187.1348, RT 46.31086: 2.329 fold
Fold: Acetylcarnitine / L-Glutamic acid n-butyl ester, mass 203.1138, RT 9.675726: −1.707 fold
Fold: Benzenemethanol, 2-(2-aminopropoxy)-3-methyl- / a-[1-(ethylamino)ethyl]-p-hydroxy-Benzyl alcohol, mass 195.124, RT 31.19917: −2.225 fold
Fold: Benzenemethanol, 2-(2-aminopropoxy)-3-methyl- / a-[1-(ethylamino)ethyl]-p-hydroxy-Benzyl alcohol, mass 195.1253, RT 38.99212: 2.159 fold
Fold: Homogentisic acid / Vanillic acid, mass 168.0434, RT 19.18355: −1.468 fold
Fold: L-Oleandrosyl-oleandolide, mass 530.314, RT 23.87065: 1.965 fold
Fold: L-Urobilinogen;, mass 596.3543, RT 25.14927: 1.396 fold
Fold: N-Methyl-2-pyrrolidinone, mass 99.0689, RT 15.48433: 1.434 fold
Fold: Neu5Acalpha2-3Galbeta1-4Glcbeta-Sp / Neu5Acalpha2-6Galbeta1-4Glcbeta-Sp, mass 702.2497, RT 40.84822: −2.769 fold
Fold: Pantothenol / dimethylbutanamide;, mass 205.1304, RT 6.747279: −1.2578 fold
Fold: Phenanthrene-9,10-oxide, mass 194.073, RT 5.935143: −1.389 fold
Fold: Unknown, mass 99.1043, RT 52.01225: 2.703 fold
Fold: Unknown, mass 120.2112, RT 13.40565: 4.847 fold
Fold: Unknown, mass 131.076, RT 14.35336: 3.629 fold
Fold: Unknown, mass 197.1769, RT 48.37093: −3.119 fold
Fold: Unknown, mass 243.1089, RT 17.7027: −2.181 fold
Fold: Unknown, mass 268.2487, RT 42.3656: −1.55 fold
Fold: Unknown, mass 272.16, RT 43.99398: 2.187 fold
Fold: Unknown, mass 292.1862, RT 37.97297: 2.239 fold
Fold: Unknown, mass 293.9773, RT 4.014175: 1.939 fold
Fold: Unknown, mass 295.1521, RT 8.967061: 1.513 fold
Fold: Unknown, mass 298.174, RT 50.75387: −3.002 fold
Fold: Unknown, mass 300.1147, RT 18.88505: 2.686 fold
Fold: Unknown, mass 301.1345, RT 7.719471: 6.649 fold
Fold: Unknown, mass 312.1341, RT 15.22357: −2.015 fold
Fold: Unknown, mass 315.6732, RT 26.51229: 2.015 fold
Fold: Unknown, mass 325.2711, RT 18.82373: −1.756 fold
Fold: Unknown, mass 325.2714, RT 20.94557: −2.074 fold
Fold: Unknown, mass 353.2765, RT 3.85935: 2.622 fold
Fold: Unknown, mass 357.1781, RT 25.16993: 2.217 fold
Fold: Unknown, mass 359.1532, RT 24.01428: 1.536 fold
Fold: Unknown, mass 360.1321, RT 18.50245: 2.11 fold
Fold: Unknown, mass 362.2787, RT 83.72506: 2.916 fold
Fold: Unknown, mass 368.2122, RT 27.98054: 1.695 fold
Fold: Unknown, mass 379.1771, RT 20.76168: 1.54 fold
Fold: Unknown, mass 383.1721, RT 15.20829: 1.915 fold
Fold: Unknown, mass 384.2127, RT 23.38956: −2.556 fold
Fold: Unknown, mass 387.0812, RT 19.97914: −1.977 fold
Fold: Unknown, mass 388.2349, RT 46.346: 1.947 fold
Fold: Unknown, mass 403.1978, RT 51.66325: 3.116 fold
Fold: Unknown, mass 405.2001, RT 30.70733: 2.668 fold
Fold: Unknown, mass 408.1636, RT 16.21743: 1.966 fold
Fold: Unknown, mass 417.2338, RT 33.09057: 2.033 fold
Fold: Unknown, mass 417.2386, RT 21.14975: −1.98 fold
Fold: Unknown, mass 420.1862, RT 26.77212: 3.283 fold
Fold: Unknown, mass 429.2533, RT 18.03482: −1.808 fold
Fold: Unknown, mass 429.2535, RT 30.24237: 1.805 fold
Fold: Unknown, mass 431.2501, RT 35.58196: 1.532 fold
Fold: Unknown, mass 440.0223, RT 4.808947: −1.528 fold
Fold: Unknown, mass 443.2381, RT 24.13915: 2.986 fold
Fold: Unknown, mass 443.3216, RT 67.0705: 1.752 fold
Fold: Unknown, mass 444.2237, RT 51.58546: 2.131 fold
Fold: Unknown, mass 460.9391, RT 33.51823: −4.518 fold
Fold: Unknown, mass 467.3804, RT 46.51446: 2.068 fold
Fold: Unknown, mass 468.2002, RT 51.6158: 1.875 fold
Fold: Unknown, mass 471.7804, RT 30.72707: −2.836 fold
Fold: Unknown, mass 478.2761, RT 30.28867: 1.699 fold
Fold: Unknown, mass 487.3472, RT 66.73744: 2.931 fold
Fold: Unknown, mass 489.2127, RT 21.72729: −1.51 fold
Fold: Unknown, mass 510.8202, RT 31.22083: 2.488 fold
Fold: Unknown, mass 525.3161, RT 34.57864: 1.551 fold
Fold: Unknown, mass 526.2773, RT 51.73057: 3.446 fold
Fold: Unknown, mass 531.2876, RT 32.50661: 2.106 fold
Fold: Unknown, mass 531.3191, RT 35.58454: −1.252 fold
Fold: Unknown, mass 531.3736, RT 66.31491: 3.863 fold
Fold: Unknown, mass 541.3274, RT 32.24719: 2.162 fold
Fold: Unknown, mass 545.3029, RT 17.6573: −1.395 fold
Fold: Unknown, mass 554.8471, RT 31.891: 2.038 fold
Fold: Unknown, mass 555.2406, RT 15.78741: 1.835 fold
Fold: Unknown, mass 555.8505, RT 5.742094: −1.289 fold
Fold: Unknown, mass 556.3971, RT 88.02533: −3.118 fold
Fold: Unknown, mass 559.8329, RT 31.97996: −1.7213 fold
Fold: Unknown, mass 574.3397, RT 24.7039: 1.584 fold
Fold: Unknown, mass 574.3427, RT 31.71105: 1.75 fold
Fold: Unknown, mass 576.096, RT 47.90467: 1.361 fold
Fold: Unknown, mass 589.6938, RT 35.26918: 1.82 fold
Fold: Unknown, mass 591.3789, RT 31.54325: 1.578 fold
Fold: Unknown, mass 603.3535, RT 32.67372: −2.63 fold
Fold: Unknown, mass 619.3409, RT 33.68866: 1.857 fold
Fold: Unknown, mass 620.8861, RT 32.73907: 2.249 fold
Fold: Unknown, mass 635.4065, RT 32.08734: 1.393 fold
